The supplement of paper PMC5908809

Assays:
[1] = system: normal NK cells expanded with K562-aAPC; assay: percent inhibition of viability; higher = more inhibition; conditions: 72 h, IL-2 2.5 ng/mL
Description: (§1)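 Drug sensitivity and resistance testing on K562-aAPC-expanded normal NK cells: 5 concentrations (10-fold steps over a 10,000-fold range), 72 h at 37 °C, viability by CellTiter-Glo normalised to DMSO and benzethonium chloride controls; DSS from the fitted curve.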

NKL (IL-2 2.5 ng/mL) [2] = assay: drug sensitivity score (DSS) (DSS units); higher = more sensitive; extreme values may be limits of the assay; conditions: 72 h
NK-YS (IL-2 2.5 ng/mL) [3] = assay: as above; conditions: 72 h
[4] = system: normal primary NK cells, pool 1 (3 donors) (IL-2 2.5 ng/mL); assay: as above; conditions: 72 h
DERL-7 (IL-2 2.5 ng/mL) [5] = assay: as above; conditions: 72 h
[6] = system: normal primary NK cells, pool 2 (3 donors) (IL-2 2.5 ng/mL); assay: as above; conditions: 72 h
[7] = system: normal primary NK cells, pool 3 (3 donors) (IL-2 2.5 ng/mL); assay: as above; conditions: 72 h
[8] = system: normal primary NK cells, pool 1 (3 donors), resting (IL-2 0 ng/mL); assay: as above; conditions: 72 h
KAI3 (IL-2 2.5 ng/mL) [9] = assay: as above; conditions: 72 h
YT (IL-2 2.5 ng/mL) [10] = assay: as above; conditions: 72 h
SNK-6 (IL-2 2.5 ng/mL) [11] = assay: as above; conditions: 72 h
KHYG-1 (IL-2 2.5 ng/mL) [12] = assay: as above; conditions: 72 h
NK-92 (IL-2 2.5 ng/mL) [13] = assay: as above; conditions: 72 h
IMC-1 (IL-2 20 ng/mL) [14] = assay: as above; conditions: 72 h
NKL (IL-2 2.5 ng/mL) [15] = assay: percent inhibition of viability; higher = more inhibition; conditions: 72 h
NK-YS (IL-2 2.5 ng/mL) [16] = assay: as above; conditions: 72 h
[17] = system: normal primary NK cells, pool 1 (3 donors) (IL-2 2.5 ng/mL); assay: as above; conditions: 72 h
DERL-7 (IL-2 2.5 ng/mL) [18] = assay: as above; conditions: 72 h
[19] = system: normal primary NK cells, pool 2 (3 donors) (IL-2 2.5 ng/mL); assay: as above; conditions: 72 h
[20] = system: normal primary NK cells, pool 3 (3 donors) (IL-2 2.5 ng/mL); assay: as above; conditions: 72 h
[21] = system: normal primary NK cells, pool 1 (3 donors), resting (IL-2 0 ng/mL); assay: as above; conditions: 72 h
KAI3 (IL-2 2.5 ng/mL) [22] = assay: as above; conditions: 72 h
YT (IL-2 2.5 ng/mL) [23] = assay: as above; conditions: 72 h
SNK-6 (IL-2 2.5 ng/mL) [24] = assay: as above; conditions: 72 h
KHYG-1 (IL-2 2.5 ng/mL) [25] = assay: as above; conditions: 72 h
NK-92 (IL-2 2.5 ng/mL) [26] = assay: as above; conditions: 72 h
IMC-1 (IL-2 20 ng/mL) [27] = assay: as above; conditions: 72 h
[28] = system: normal NK cells expanded with K562-aAPC; assay: drug sensitivity score (DSS) (DSS units); higher = more sensitive; extreme values may be limits of the assay; conditions: 72 h; IL-2 2.5 ng/mL
Description: as §1

O=NN(CCCl)C(=O)NCCCl [Carmustine] (max concentration tested 10000 nM)
percent inhibition of viability [%]
Conditions | 1 nM | 10 nM | 100 nM | 1000 nM | 10000 nM
DERL-7 (IL-2 2.5 ng/mL) [18] | 5.36 | 1.21 | 3.36 | -4.79 | -4.35
IMC-1 (IL-2 20 ng/mL) [27] | -8.03 | -3.09 | -2.96 | 3.55 | 8.41
KAI3 (IL-2 2.5 ng/mL) [22] | 12.9 | 6.82 | 6.77 | 13.6 | 17.8
KHYG-1 (IL-2 2.5 ng/mL) [25] | -12.5 | -8.6 | -6.75 | 0.23 | 1.87
NK-92 (IL-2 2.5 ng/mL) [26] | -3.64 | -0.92 | 5.06 | 12.7 | 8.79
NK-YS (IL-2 2.5 ng/mL) [16] | -3.2 | -2.47 | -1.96 | 2.21 | 7.95
NKL (IL-2 2.5 ng/mL) [15] | 4.96 | 5.53 | 6.04 | 16.2 | 15.6
SNK-6 (IL-2 2.5 ng/mL) [24] | -5.81 | -6.45 | 1.48 | -7.81 | -8.51
YT (IL-2 2.5 ng/mL) [23] | -9.42 | -5.55 | -4.43 | -1.14 | 11
[1] | -3.33 | -8.02 | -3.23 | 5.49 | 10.2
[17] | 4.94 | 8.26 | 6.5 | 0.38 | 7.88
[19] | -2.54 | 3.84 | 0.64 | 0.07 | 9.39
[20] | -2.97 | 5.49 | 5.6 | 3.01 | 4.59
[21] | 9.22 | 19.6 | 23.1 | 5.64 | 15.2

Conditions | drug sensitivity score
DERL-7 (IL-2 2.5 ng/mL) [5] | 0
IMC-1 (IL-2 20 ng/mL) [14] | 0
KAI3 (IL-2 2.5 ng/mL) [9] | 0
KHYG-1 (IL-2 2.5 ng/mL) [12] | 0
NK-92 (IL-2 2.5 ng/mL) [13] | 1.02
NK-YS (IL-2 2.5 ng/mL) [3] | 0
NKL (IL-2 2.5 ng/mL) [2] | 1.26
SNK-6 (IL-2 2.5 ng/mL) [11] | 0
YT (IL-2 2.5 ng/mL) [10] | 0
[4] | 0
[6] | 0
[7] | 0
[8] | 0
[28] | 0.01

O=C(c1ccc(F)c(F)c1Nc1ccc(I)cc1F)N1CC(O)([C@@H]2CCCCN2)C1 [Cobimetinib] (max concentration tested 1000 nM)
percent inhibition of viability [%]
Conditions | 0.1 nM | 1 nM | 10 nM | 100 nM | 1000 nM
DERL-7 (IL-2 2.5 ng/mL) [18] | -2.43 | 3.83 | 18.1 | 32.9 | 46.5
IMC-1 (IL-2 20 ng/mL) [27] | -6.91 | -4.02 | -2.84 | -2.89 | 11.3
KAI3 (IL-2 2.5 ng/mL) [22] | 9.38 | 9.29 | 9.13 | 11.7 | 32.1
KHYG-1 (IL-2 2.5 ng/mL) [25] | 0.28 | -3.46 | 0.44 | 23.2 | 61.9
NK-92 (IL-2 2.5 ng/mL) [26] | -10.5 | -14.3 | -27.4 | -34.9 | 9.96
NK-YS (IL-2 2.5 ng/mL) [16] | -1.72 | -3.33 | -3.31 | 6.41 | 24.2
NKL (IL-2 2.5 ng/mL) [15] | -12.4 | -11.4 | 17.8 | 45 | 73.1
SNK-6 (IL-2 2.5 ng/mL) [24] | -10.3 | -0.09 | -17.7 | -8.92 | -10.9
YT (IL-2 2.5 ng/mL) [23] | 0.33 | -2.92 | -2.04 | -0.43 | 15.7
[1] | -7.24 | -7.72 | -6.49 | 1.17 | 21.4
[17] | -3.52 | 2.49 | 17.3 | 18.4 | 24
[19] | -3.62 | -9.92 | 3.68 | 12.4 | 19.9
[20] | -9.25 | -10.3 | -2.76 | -1.62 | 12.1
[21] | 7.7 | 3.18 | 22 | 14 | 16.4

Conditions | drug sensitivity score
DERL-7 (IL-2 2.5 ng/mL) [5] | 7.96
IMC-1 (IL-2 20 ng/mL) [14] | 0
KAI3 (IL-2 2.5 ng/mL) [9] | 3.21
KHYG-1 (IL-2 2.5 ng/mL) [12] | 6.6
NK-92 (IL-2 2.5 ng/mL) [13] | 0
NK-YS (IL-2 2.5 ng/mL) [3] | 1.78
NKL (IL-2 2.5 ng/mL) [2] | 10.4
SNK-6 (IL-2 2.5 ng/mL) [11] | 0
YT (IL-2 2.5 ng/mL) [10] | 0.26
[4] | 5.11
[6] | 1.58
[7] | 0.02
[8] | 2.92
[28] | 0.83
